# Source: ChEMBL document CHEMBL5260828, “Amphiphilic glycoconjugates as potential anti-cancer chemotherapeutics” (Eur J Med Chem, 2018)
# Legend:
# MIA PaCa-2 [1] = experiment: Cytotoxicity against human MIA PaCa-2 cells assessed as inhibition of cell growth incubated for 72 hrs by CellTiter 96 aqueous one solution assay; type: functional, cell-based; conditions: MIA PaCa-2, 72 h
# PK9 = experiment: Cytotoxicity against human PK9 cells assessed as inhibition of cell growth incubated for 72 hrs by CellTiter 96 aqueous one solution assay; type: functional, cell-based; conditions: PK9, 72 h
# HL-60 = experiment: Cytotoxicity against human HL-60 cells assessed as inhibition of cell proliferation incubated for 72 hrs by MTT assay; type: functional, cell-based; conditions: HL-60, 72 h
# HeLa [2] = experiment: Cytotoxicity against human HeLa cells assessed as inhibition of cell proliferation incubated for 72 hrs by MTT assay; type: functional, cell-based
# HCT-116 = experiment: Cytotoxicity against human HCT-116 cells assessed as cell growth inhibition incubated for 72 hrs by celltiter 96 aqueous cell proliferation assay; type: functional, cell-based; conditions: HCT-116, 72 h
# [3] = molecular target: RAC-alpha serine/threonine-protein kinase (Homo sapiens, UniProt P31749); experiment: Inhibition of AKT1 (unknown origin) in presence of ATP by ELISA
# RAC-alpha serine/threonine-protein kinase, sequence (P31749 whole entry): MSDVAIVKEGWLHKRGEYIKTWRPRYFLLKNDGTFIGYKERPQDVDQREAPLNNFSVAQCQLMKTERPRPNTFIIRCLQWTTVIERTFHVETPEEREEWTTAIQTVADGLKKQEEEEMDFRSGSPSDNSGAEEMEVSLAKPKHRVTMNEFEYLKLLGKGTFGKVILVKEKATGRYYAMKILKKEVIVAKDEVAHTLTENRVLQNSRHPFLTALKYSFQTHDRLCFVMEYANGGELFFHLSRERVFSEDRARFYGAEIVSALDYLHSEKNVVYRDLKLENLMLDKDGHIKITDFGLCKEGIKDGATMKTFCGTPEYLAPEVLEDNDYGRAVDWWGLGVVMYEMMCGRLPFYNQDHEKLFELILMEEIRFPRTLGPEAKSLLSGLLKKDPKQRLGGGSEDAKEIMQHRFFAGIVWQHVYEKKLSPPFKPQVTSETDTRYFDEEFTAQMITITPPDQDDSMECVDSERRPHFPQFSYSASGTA
# BT-474 = experiment: Cytotoxicity against human BT-474 cells assessed as reduction in cell viability incubated for 48 hrs by MTS assay; type: functional, cell-based; conditions: for IC50: BT-474, 48 h; for CC50: BT-474, time 48 hrs
# JIMT-1 = experiment: Cytotoxicity against human JIMT-1 cells assessed as reduction in cell viability incubated for 48 hrs by MTS assay; type: functional, cell-based; conditions: for IC50: JIMT-1, 48 h; for CC50: JIMT-1, time 48 hrs
# PC-3 = experiment: Cytotoxicity against human PC-3 cells assessed as reduction in cell viability incubated for 48 hrs by MTS assay; type: functional, cell-based; conditions: for IC50: PC-3, 48 h; for CC50: PC-3, time 48 hrs
# MIA PaCa-2 [4] = experiment: Cytotoxicity against human MIA PaCa-2 cells assessed as reduction in cell viability incubated for 48 hrs by MTS assay; type: functional, cell-based; conditions: for IC50: MIA PaCa-2, 48 h; for CC50: MIA PaCa-2, time 48 hrs
# MDA-MB-231 = experiment: Cytotoxicity against human MDA-MB-231 cells assessed as reduction in cell viability incubated for 48 hrs by MTS assay; type: functional, cell-based; conditions: for IC50: MDA-MB-231, 48 h; for CC50: MDA-MB-231, time 48 hrs
# DU-145 = experiment: Cytotoxicity against human DU-145 cells assessed as reduction in cell viability incubated for 48 hrs by MTS assay; type: functional, cell-based; conditions: for IC50: DU-145, 48 h; for CC50: DU-145, time 48 hrs
# K562 = experiment: Cytotoxicity against human K562 cells; type: functional, cell-based
# SGC-7901 = experiment: Cytotoxicity against human SGC-7901 cells incubated for 48 hrs by MTT assay; type: functional, cell-based; conditions: SGC-7901, 48 h
# HeLa [5] = experiment: Cytotoxicity against human HeLa cells incubated for 48 hrs by MTT assay; type: functional, cell-based
# MCF7 = experiment: Cytotoxicity against human MCF7 cells incubated for 48 hrs by MTT assay; type: functional, cell-based; conditions: MCF7, 48 h
# A549 = experiment: Cytotoxicity against human A549 cells incubated for 48 hrs by MTT assay; type: functional, cell-based; conditions: A549, 48 h
# HepG2 = experiment: Cytotoxicity against human HepG2 cells incubated for 48 hrs by MTT assay; type: functional, cell-based; conditions: HepG2, 48 h
smiles,measurement,setting,value
CCCCCCCCCCCCc1cn(CC[C@H]2NC[C@@H](O)[C@H]2O)nn1,IC50,MIA PaCa-2 [1],19 µM
same,IC50,PK9,19 µM
CCCCCCCCCCCCc1cn(C[C@@H]2N[C@@H](C)[C@@H](O)[C@H]2O)nn1,IC50,MIA PaCa-2 [1],19 µM
same,IC50,PK9,19 µM
C/C=C/C/C(C)=C\[C@H]1C/C=C/C=C/C[C@H](C)/C=C(\C)[C@@H](OC)C/C=C/[C@@H](O)CC(=O)O1,IC50,HL-60,0.03 µM
same,IC50,HeLa [2],0.049 µM
CCCCCCCCCCCCc1cn(C[C@H]2NC[C@H](O)[C@@H]2O)nn1,IC50,MIA PaCa-2 [1],19 µM
same,IC50,PK9,19 µM
CO[C@@H]1[C@H](O[C@H]2C[C@]3(O)O[C@H]([C@@H]2C)[C@H](C)[C@H](OC)/C=C(\C)C[C@H](/C=C/C#C[C@H]2C[C@@H]2Cl)OC(=O)[C@H]3C)O[C@@H](C)[C@H]2NC(=O)O[C@]21C,IC50,HCT-116,30 µM
CCCCCCCCCCCCCCCCCC(=O)OCC(COC(=O)CCCCCCCCCCCCCCCCC)O[C@@H]1O[C@H](C(=O)O)[C@@H](O)[C@H](O)[C@H]1O,IC50,[3],> 100 µM
CCCCCCCCCCCCCCCCOC[C@H](CO[C@H]1O[C@H](CNC(=O)CCCc2ccc(N(CCCl)CCCl)cc2)[C@@H](O)[C@H](O)[C@H]1N)OC,IC50,BT-474,6 µM
same,IC50,JIMT-1,6 µM
same,IC50,PC-3,6 µM
same,IC50,MIA PaCa-2 [4],6 µM
same,IC50,MDA-MB-231,6 µM
same,IC50,DU-145,6 µM
CC(=O)OC[C@H]1O[C@@H](Oc2cc(C)c(O)cc2C/C=C(\C)CC/C=C(\C)C[C@H](C=C(C)C)OC(C)=O)[C@H](O)[C@@H](OC(C)=O)[C@H]1OC(C)=O,IC50,K562,3.1 µg/mL
CCCCCCCCCCCCCCCCOC[C@H](CO[C@@H]1O[C@H](CN)[C@@H](O)[C@H](O)[C@H]1N)OC,CC50,BT-474,7.5 µM
same,CC50,JIMT-1,3.5 µM
same,CC50,PC-3,3.5 µM
same,CC50,MIA PaCa-2 [4],3.5 µM
same,CC50,MDA-MB-231,3 µM
same,CC50,DU-145,5.2 µM
CO[C@@H]1/C=C(\C)C[C@H](/C=C/C=C/C#C[C@@H]2C[C@H]2Cl)OC(=O)C[C@]2(O)C[C@H](O[C@@H]3O[C@@H](C)[C@H]4NC(=O)O[C@@]4(C)[C@H]3OC)[C@H](C)[C@@H](O2)[C@@H]1C,IC50,HCT-116,61.9 µM
C/C=C/C/C(C)=C\[C@H]1C/C=C/C=C/C[C@H](C)/C=C(\C)[C@@H](OC)CCC[C@@H](O)CC(=O)O1,IC50,HL-60,0.024 µM
same,IC50,HeLa [2],0.046 µM
CO[C@@H]1/C=C(\C)C[C@H](/C=C/C#C[C@H]2C[C@@H]2Cl)OC(=O)[C@@H](C)[C@]2(O)C[C@H](O[C@@H]3O[C@@H](C)[C@H](O)[C@@](C)(O)[C@H]3O[C@@H]3O[C@@H](C)[C@H](O)[C@@](C)(O)[C@H]3OC)[C@@H](C)[C@@H](O2)[C@@H]1C,IC50,HCT-116,10.2 µM
CCCCC[C@@H]1CCCCCCCCCC(=O)O[C@H]2[C@@H](O)[C@H](O[C@H]3[C@H](O1)O[C@H](CO)[C@@H](O)[C@@H]3O)O[C@@H](C)[C@@H]2O[C@@H]1O[C@@H](C)[C@H](O[C@@H]2O[C@@H](C)[C@H](OC(=O)[C@@H](C)CC)[C@@H](OC(=O)/C=C/c3ccccc3)[C@H]2O)[C@@H](O[C@@H]2O[C@@H](C)[C@H](O)[C@@H](O)[C@H]2O)[C@H]1OC(=O)[C@@H](C)CC,IC50,SGC-7901,4.28 µM
same,IC50,HeLa [5],4.28 µM
same,IC50,MCF7,4.28 µM
same,IC50,A549,4.28 µM
same,IC50,HepG2,4.28 µM
COC(C)(C)/C=C/C/C(C)=C/CC/C(C)=C/Cc1cc(O)c(C)cc1O[C@@H]1O[C@H](COC(C)=O)[C@H](OC(C)=O)[C@H](OC(C)=O)[C@H]1O,IC50,K562,9.4 µg/mL
CCCCCCCC/C=C\CCCCCCCCNC(=O)[C@H]1[C@@H]2OC(C)(C)O[C@@H]2[C@](C)(CO)N1CCCC,IC50,MIA PaCa-2 [1],3.6 µM
same,IC50,PK9,17 µM
C/C=C/C/C(C)=C\[C@H]1C/C=C/C=C/C[C@H](C)/C=C(\C)[C@@H](OC)CCC[C@@H](O[C@@H]2O[C@H](CO)[C@@H](O)[C@H](OC)[C@H]2O)CC(=O)O1,IC50,HL-60,0.071 µM
same,IC50,HeLa [2],0.19 µM
CC(=O)OC[C@H]1O[C@@H](Oc2cc(C)c(O)cc2C/C=C(\C)CC/C=C(\C)C[C@@H](O)C=C(C)C)[C@H](O)[C@@H](OC(C)=O)[C@H]1OC(C)=O,IC50,K562,2.6 µg/mL
CCCCCCCCCCCCCCCCOC[C@H](CO[C@H]1O[C@H](CN)[C@@H](O)[C@H](O)[C@H]1NC(=O)CCCc1ccc(N(CCCl)CCCl)cc1)OC,IC50,BT-474,6 µM
same,IC50,JIMT-1,6 µM
same,IC50,PC-3,6 µM
same,IC50,MIA PaCa-2 [4],6 µM
same,IC50,MDA-MB-231,6 µM
same,IC50,DU-145,6 µM
CCCCCCCC(=O)O[C@H]1[C@H](O[C@@H]2[C@H]3OC(=O)CCCCCCCCC[C@@H](CCCCC)O[C@@H]4O[C@H](CO)[C@@H](O)[C@H](O)[C@H]4O[C@H](O[C@H]2C)[C@@H]3O)O[C@@H](C)[C@H](O[C@@H]2O[C@@H](C)[C@H](OC(=O)[C@@H](C)CC)[C@@H](OC(=O)/C=C/c3ccccc3)[C@H]2O)[C@H]1O[C@@H]1O[C@@H](C)[C@H](O)[C@@H](O)[C@H]1O,IC50,SGC-7901,4.28 µM
same,IC50,HeLa [5],4.28 µM
same,IC50,MCF7,4.28 µM
same,IC50,A549,4.28 µM
same,IC50,HepG2,4.28 µM
CCCCCCCCCC(=O)O[C@H]1[C@H](O[C@@H]2[C@H]3OC(=O)CCCCCCCCC[C@@H](CCCCC)O[C@@H]4O[C@H](CO)[C@@H](O)[C@H](O)[C@H]4O[C@H](O[C@H]2C)[C@@H]3O)O[C@@H](C)[C@H](O[C@@H]2O[C@@H](C)[C@H](O/C(O)=C(/C)CC)[C@@H](O)[C@H]2OC(=O)/C=C/c2ccccc2)[C@H]1O[C@@H]1O[C@@H](C)[C@H](O)[C@@H](O)[C@H]1O,IC50,SGC-7901,4.28 µM
same,IC50,HeLa [5],4.28 µM
same,IC50,MCF7,4.28 µM
same,IC50,A549,4.28 µM
same,IC50,HepG2,4.28 µM
C/C=C/C/C(C)=C/[C@H]1C/C=C/C=C/C[C@H](C)/C=C(\C)[C@@H](OC)C/C=C/[C@@H](O[C@@H]2O[C@H](CO)[C@@H](O)[C@H](OC)[C@H]2O)CC(=O)O1,IC50,HL-60,0.66 µM
same,IC50,HeLa [2],3.1 µM
CCCCCCCCCC(=O)O[C@H]1[C@H](O[C@@H]2[C@H]3OC(=O)CCCCCCCCC[C@@H](CCCCC)O[C@@H]4O[C@H](CO)[C@@H](O)[C@H](O)[C@H]4O[C@H](O[C@H]2C)[C@@H]3O)O[C@@H](C)[C@H](O[C@@H]2O[C@@H](C)[C@H](OC(=O)[C@@H](C)CC)[C@@H](O)[C@H]2O)[C@H]1O[C@@H]1O[C@@H](C)[C@H](O)[C@@H](O)[C@H]1O,IC50,SGC-7901,4.28 µM
same,IC50,HeLa [5],4.28 µM
same,IC50,MCF7,4.28 µM
same,IC50,A549,4.28 µM
same,IC50,HepG2,4.28 µM
CC(=O)OC[C@H]1O[C@@H](Oc2cc(C)c(O)cc2C/C=C(\C)CC/C=C(\C)CCC=C(C)C)[C@H](O)[C@@H](OC(C)=O)[C@H]1OC(C)=O,IC50,K562,5.2 µg/mL
CCCCCCCCCOC(=O)O[C@H](COC(=O)CCCCCCCCC)COP(=O)(O)O[C@@H]1[C@H](O)[C@H](OP(=O)(O)O)[C@@H](O)[C@H](O)[C@H]1O,IC50,[3],> 100 µM
CCCCCCCCCC(=O)O[C@H]1[C@H](O[C@@H]2[C@H]3OC(=O)CCCCCCCCC[C@@H](CCCCC)O[C@@H]4O[C@H](CO)[C@@H](O)[C@H](O)[C@H]4O[C@H](O[C@H]2C)[C@@H]3O)O[C@@H](C)[C@H](O[C@@H]2O[C@@H](C)[C@H](OC(=O)[C@@H](C)CC)[C@@H](OC(=O)/C=C/c3ccccc3)[C@H]2O)[C@H]1O[C@@H]1O[C@@H](C)[C@H](O)[C@@H](O)[C@H]1O,IC50,SGC-7901,4.28 µM
same,IC50,HeLa [5],4.28 µM
same,IC50,MCF7,4.28 µM
same,IC50,A549,4.28 µM
same,IC50,HepG2,4.28 µM
CC(=O)OC[C@H]1O[C@@H](Oc2cc(C)c(O)cc2C/C=C(\C)CC/C=C(\C)CC(=O)CC(C)C)[C@H](O)[C@@H](OC(C)=O)[C@H]1OC(C)=O,IC50,K562,8.1 µg/mL
O=C(O)CCCc1ccc(N(CCCl)CCCl)cc1 [CHLORAMBUCIL],CC50,BT-474,> 150 µM
same,CC50,JIMT-1,> 150 µM
same,CC50,PC-3,> 150 µM
same,CC50,MIA PaCa-2 [4],> 150 µM
same,CC50,MDA-MB-231,> 150 µM
same,CC50,DU-145,> 150 µM
